For this test, the target named is T1, human glucocorticoid receptor (Homo sapiens, UniProt P04150).
T1 construct: host or cells: IM9 human lymphoblast cells, cytosol fraction
T1 sequence (P04150 1-777): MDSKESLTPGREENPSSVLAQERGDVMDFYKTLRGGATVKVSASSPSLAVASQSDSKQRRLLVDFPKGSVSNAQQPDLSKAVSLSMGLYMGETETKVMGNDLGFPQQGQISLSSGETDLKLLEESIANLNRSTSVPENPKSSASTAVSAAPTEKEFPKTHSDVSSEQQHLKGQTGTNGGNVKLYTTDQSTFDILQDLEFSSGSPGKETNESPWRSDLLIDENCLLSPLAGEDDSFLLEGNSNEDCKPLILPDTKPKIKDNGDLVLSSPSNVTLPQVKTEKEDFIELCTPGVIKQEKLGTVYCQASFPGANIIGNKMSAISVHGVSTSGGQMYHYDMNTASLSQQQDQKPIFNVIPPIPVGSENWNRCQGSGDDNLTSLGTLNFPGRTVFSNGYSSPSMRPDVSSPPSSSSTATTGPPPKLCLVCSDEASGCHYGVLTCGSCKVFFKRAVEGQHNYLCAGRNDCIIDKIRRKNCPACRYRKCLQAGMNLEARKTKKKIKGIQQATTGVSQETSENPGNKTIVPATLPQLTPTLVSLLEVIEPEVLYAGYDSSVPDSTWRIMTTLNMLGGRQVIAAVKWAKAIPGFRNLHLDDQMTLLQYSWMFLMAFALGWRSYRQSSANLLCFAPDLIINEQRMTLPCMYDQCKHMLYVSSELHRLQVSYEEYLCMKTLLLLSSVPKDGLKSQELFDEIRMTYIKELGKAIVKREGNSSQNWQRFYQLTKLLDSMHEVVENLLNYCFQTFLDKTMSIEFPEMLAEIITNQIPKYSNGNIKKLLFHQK
In words: Human glucocorticoid receptor (hGR) ligand-binding assay, 3H-dexamethasone, IM9 cytosol. As to conditions: read-out: % inhibition hGR at 1 μM. The method, then:
Preferably, the glucocortitcoid receptor extracted from cytosol of IM9 cells is used for competitive radioligand binding assays to calculate percentage inhibition of the binding of radiolabeled ligand 3H-dexamethasone at the human glucocorticoid receptor.
The human lymphoblast cell line IM9 (ATCC, Bethesda, Md.) was cultivated in RPMI 1640 media containing 10% fetal bovine serum, penicillin (100 U/ml), streptomycin (100 μg/ml), and 2 mM L-glutamine at […] and 7% CO2 in a humidified incubator. Cells were centrifuged for 10 minutes at 1500 g and were washed in PBS and repelleted. Cell were then resuspended in homogenization buffer consisting of: 10 mM TES, 10 mM sodium molybdate, 1 mM EDTA, pH 7.4, 20 mM 2-mercaptoethanol, and 10% glycerol. Disruption of the cells was performed by nitrogen cavitation using 2×15 minutes at 600 to 750 psi nitrogen in a N2 cavitator at 0° C. The cell preparation was then centrifuged at 27,000 g for 15 minutes, and the resultant supernatant (=cytosol of IM9 cells) was centrifuged at 103,000 g for 60 minutes at 4° C. The amount of protein in the supernatant fraction was determined using a BCA assay kit and aliquots were snap frozen in a dry ice-acetone bath and stored at −70° C. […] 100 μl of the supernatant) was finally assayed for radioactivity by liquid scintillationspectrometry, and percentage inhibition of 3H-dexamethasone binding was calculated.

Molecules are shown by their SMILES.

As for `Cc1cnc(C(=O)N[C@H]2[C@H](c3ccccc3)N(c3ccc4c(cnn4-c4ccc(=O)n(C)c4)c3)C(=O)C2(C)C)s1` [Example 26, N-[(2S,3R)-4,4-Dimethyl-1-[1-(1-methyl-6-oxo-1H-pyridin-3-yl)-1H-indazol-5-yl]-5-oxo-2-phenyl-pyrrolidin-3-yl]-5-methyl-thiazole-2-carboxylic acid amide], the inhibition – broadly, the drop in the measured response relative to a control, in per cent – at 1 µM amounted to 28%.

For the origin of these results see patent US20200223840A1, “SUBSTITUTED PYRROLIDINE AMIDES III” (Gruenenthal GMBH, priority 2019, published 2020).
